Tested on: binding of 125I-HCGβ to monoclonal antibody FBT11-II
Test: Competitive inhibition assay with synthetic peptides (125I-HCGβ tracer)
Details: increasing concentrations of unlabeled peptide; 4° C. for 18 h; FIG. 2
Description: Competitive inhibition assays were performed as previously described (20). Briefly, ^125I labelled HCGβ was employed as the tracer. All experiments were performed in 50 mM phosphate buffer, pH 7.5, containing 154 mM NaCl, 0.02% sodium azide, and 1% bovine serum albumin. First, we determined the dilution of FBT11-II which produced a 50% binding to ^125I-HCGβ (30,000 cpm) in the absence of peptide. Then, competitive inhibition assays were performed with the defined dilution of antibody. Displacement curves were generated in the presence of increasing concentrations of unlabeled peptides as follows: 100 μl of ^125I—HCGIβ, 100 μl of monoclonal antibody, and 50 μl of the competitive inhibitor were incubated simultaneously at 4° C. for 18 h. The antigen-antibody complex was then precipitated by adding normal human serum diluted (1:3) in phosphate buffer (100 μl) and 1 ml of 20% polyethylene glycol. After centrifugation, the pellet was counted.
Since it was previously shown that FBT11 recognizes residues 1 through 7 and 82 through 92 of the free HCGβ subunit (20), in this study we examined whether the differences in the N-terminal sequence of HCGβ altered the recognition of FBT11-II. We performed inhibition assays with peptides spanning residues 1 through 7 to determine mAb FBT11-II specificity. We used three peptides analogous to sequences 1-7 of HCGβ encoded by type I gene (SREMLRP, SEQ ID NO: 4), 1-7 of HCGβ encoded by type II genes (SKEPLRP, SEQ ID NO: 3) and 1-7 of LHβ (SREPLRP, SEQ ID NO: 5) (FIG. 2). First, we determined the dilution of FBT11-II which produced a 50% binding to ^125I-HCGβ in the absence of peptide. Then, competitive inhibition assays were performed with the defined dilution of antibody. Displacement curves were generated in the presence of increasing concentrations of unlabeled peptides.

Substance | Inhibition of 125I-HCGβ binding to antibody FBT11-II (displacement of bound tracer)
SREPLRP (Synthetic 7-mer peptides corresponding to residues 1 through 7 of the LHbeta gene) | to a lesser degree than SKEPLRP
SKEPLRP (Synthetic 7-mer peptides corresponding to residues 1 through 7 of HCGbeta encoded by type II genes beta3, beta5 and beta8) | highest potency
SREMLRP (Synthetic 7-mer peptides corresponding to residues 1 through 7 of HCGbeta encoded by type I gene beta7) | unable to inhibit

Reference: patent US20130203084A1, “SPECIFIC DETECTION OF HUMAN CHORIONIC GONADOTROPIN BETA SUBUNIT TYPE II PRODUCED BY TROPHOBLASTIC AND NEOPLASTIC CELLS” (Universite Paris Descartes, priority 2010, published 2013)
